From article PMC3331894 (Journal of Immunology (Baltimore, Md. : 1950), 2012)

Tests used:
CD4 T cells [1] = settings: immunodominant or cryptic epitope presented by I-A^d; cited from earlier work
CD4 T cells [2] = format: cell-based, HLA-DR1 transgenic mice; settings: average of at least 3 independent assays
[3] = molecular target: purified soluble DR1 molecules (Homo sapiens, UniProt P01903+P01911, A100R/D57E/F55L/F60I/F76Y/I96L/L162R/M171V/P40L/Q125E/R42F/V115G/Y59C); format: binding

| Sequence | Immune Response (CD4 T cells [1]) | Cytokine Spots (number of CD4 T cell recruited per million) (CD4 T cells [2]) | dissociation half-time (t1/2) of DR1:peptide complexes [3] [days] | t1/2 (h) pH 5.3, dissociation of DR1:peptide complexes [3] [h] |
| --- | --- | --- | --- | --- |
| AMKRHGLDNYRGYSL [HEL[11–25]] | Cryptic | – | – | – |
| ELLVLLENERTLDFHD [HA-440] | – | 146 spots per million CD4 T cells | 14.6 | 350 |
| HNTNGVTAACSHE [HA[126–138]] | Cryptic | – | – | – |
| HNVNGVTAACSHE [HA[126–138]T128V] | Dominant | – | – | – |
| KRNLLWLTGKNGL [HA-162] | – | 163 spots per million CD4 T cells | 3.54 | 85 |
| MEERKIKVYLPRMKME [OVA[273–288]] | Dominant | – | – | – |
| SGYAADQKSTQNAINGI [HA-375] | – | – | 25 | 600 |
